Reference: patent US10010547B2 (CASCADIAN THERAPEUTICS, INC., priority 2014, dated 2018)
Structures can show the parent of a compound that is named as a salt. Where two headings read alike, the source gives them in different places.

Columns and labels:
Chk-1 kinase = Chk-1 kinase (Homo sapiens (Human), UniProt O14757); experiment: Chk-1 Kinase Inhibiting Activity (33P-ATP filter assay, CHKtide substrate); assay type: biochemical
How it was run: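 Full-length N-terminal GST-tagged human Chk-1 from insect cells, 0.5 nM final, with 20 μM peptide substrate and 33P-ATP in HEPES pH 7.5 buffer with 1% DMSO. Reaction ran 120 minutes at room temperature; incorporated radioactivity captured on P81 filters and counted for IC50.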

MIA PaCa-2 cells = experiment: Gemcitabine Combination Cell Assay (Cell Titer Glo); assay type: cell-based; settings: for IC50: Homo sapiens; for 10xLS: approximate concentration of Chk1 inhibitor that results in a 10-fold reduction in the IC50 of gemcitabine alone; for 2xLS: approximate concentration of Chk1 inhibitor that results in a two-fold reduction in the IC50 of gemcitabine alone
How it was run: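 MIA PaCa-2 cells were treated 72 h with half-log dilutions of Chk1 inhibitor (top 3000 nM) and gemcitabine (top 100 nM), alone and in full matrix; viability by CellTiter-Glo luminescence. IC50s from four-parameter fit; Chk1 inhibitor concentrations giving two- and ten-fold lowering of gemcitabine IC50 were estimated.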

[1] = against Chk-1 kinase, read-out: IC50
[2] = Chk1 inhibitor alone, MIA PaCa-2 cells, 72 h, read-out: Chk1 IC50
[3] = MIA PaCa-2, 72 h, read-out: Chk1 IC50 (nM)

Chk-1 kinase, sequence (O14757 whole entry): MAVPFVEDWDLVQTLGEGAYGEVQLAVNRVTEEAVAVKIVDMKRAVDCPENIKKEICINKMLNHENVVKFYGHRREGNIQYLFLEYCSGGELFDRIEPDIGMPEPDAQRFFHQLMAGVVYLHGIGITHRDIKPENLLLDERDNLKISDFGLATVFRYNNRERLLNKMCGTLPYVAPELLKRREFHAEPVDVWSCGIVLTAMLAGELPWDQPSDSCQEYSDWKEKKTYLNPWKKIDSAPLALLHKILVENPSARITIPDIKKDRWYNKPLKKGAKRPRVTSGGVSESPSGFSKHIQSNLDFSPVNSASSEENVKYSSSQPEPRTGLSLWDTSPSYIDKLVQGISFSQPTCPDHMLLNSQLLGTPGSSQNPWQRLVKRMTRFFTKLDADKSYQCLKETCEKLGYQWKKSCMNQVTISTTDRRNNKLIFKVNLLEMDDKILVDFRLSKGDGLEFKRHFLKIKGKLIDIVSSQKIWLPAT

SMILES	IC50 (Chk-1 kinase; [1]) [nM]	IC50 (MIA PaCa-2 cells; [2]) [nM]	10xLS (MIA PaCa-2 cells; MIA PaCa-2 cells, 72 h) [nM]	2xLS (MIA PaCa-2 cells; MIA PaCa-2 cells, 72 h) [nM]	IC50 (MIA PaCa-2 cells; [3]) [nM]	IC50 (Chk-1 kinase) [nM]
COc1cc(CN[C@@H]2CCOC2)ccc1-c1cc(Nc2cnc(C#N)cn2)n[nH]1 [Example 131, 5-[[5-[2-methoxy-4-[[[(3R)-tetrahydrofuran-3-yl]amino]methyl]phenyl]-1H-pyrazol-3-yl]amino]pyrazine-2-carbonitrile]	0.1	592	100	3		
COc1cc(CN[C@H]2CCOC2)ccc1-c1cc(Nc2cnc(C#N)cn2)n[nH]1 [Example 132, 5-[[5-[2-methoxy-4-[[[(3S)-tetrahydrofuran-3-yl]amino]methyl]phenyl]-1H-pyrazol-3-yl]amino]pyrazine-2-carbonitrile]	0.11	411	<300	3		
COc1cc(N2CCN(C(C)C)[C@H](C)C2)ccc1-c1cc(Nc2cnc(C#N)cn2)n[nH]1 [Example 133, 5-[[5-[4-[(3R)-4-isopropyl-3-methyl-piperazin-1-yl]-2-methoxy-phenyl]-1H-pyrazol-3-yl]amino]pyrazine-2-carbonitrile]	0.12	139	30	<3		
CCN1CCC(Oc2ccc(-c3cc(Nc4cnc(C#N)cn4)n[nH]3)c(OC)c2)CC1 [Example 134, 5-[[5-[4-[(1-ethyl-4-piperidyl)oxy]-2-methoxy-phenyl]-1H-pyrazol-3-yl]amino]pyrazine-2-carbonitrile]	0.11	352	100	3		
COc1cc(OC2CCN(C(C)C)CC2)ccc1-c1cc(Nc2cnc(C#N)cn2)n[nH]1 [Example 135, 5-[[5-[4-[(1-isopropyl-4-piperidyl)oxy]-2-methoxy-phenyl]-1H-pyrazol-3-yl]amino]pyrazine-2-carbonitrile]	0.054	334	100	<3		
CCN1CCN(c2cc(F)c(-c3cc(Nc4cnc(C#N)cn4)n[nH]3)c(OC)c2)CC1 [Example 136, 5-[[5-[4-(4-ethylpiperazin-1-yl)-2-fluoro-6-methoxy-phenyl]-1H-pyrazol-3-yl]amino]pyrazine-2-carbonitrile]	0.053	228	100	3		
COc1cc(N2CCN(C(C)C)CC2)cc(F)c1-c1cc(Nc2cnc(C#N)cn2)n[nH]1 [Example 137, 5-[[5-[4-(4-isopropylpiperazin-1-yl)-2-fluoro-6-methoxy-phenyl]-1H-pyrazol-3-yl]amino]pyrazine-2-carbonitrile]	0.048	256	<100	<3		
CCN1CC[C@H](OCc2ccc(-c3cc(Nc4cnc(C#N)cn4)n[nH]3)c(OC)c2)C1 [Example 138, 5-[[5-[4-[[(3S)-1-ethylpyrrolidin-3-yl]oxymethyl]-2-methoxy-phenyl]-1H-pyrazol-3-yl]amino]pyrazine-2-carbonitrile]	0.041	836	300	<10		
COc1cc(CO[C@H]2CCN(C(C)C)C2)ccc1-c1cc(Nc2cnc(C#N)cn2)n[nH]1 [Example 139, 5-[[5-[4-[[(3S)-1-isopropylpyrrolidin-3-yl]oxymethyl]-2-methoxy-phenyl]-1H-pyrazol-3-yl]amino]pyrazine-2-carbonitrile]	0.027	743	300	10		
CCN1CC[C@@H](OCc2ccc(-c3cc(Nc4cnc(C#N)cn4)n[nH]3)c(OC)c2)C1 [Example 140, 5-[[5-[4-[[(3R)-1-ethylpyrrolidin-3-yl]oxymethyl]-2-methoxy-phenyl]-1H-pyrazol-3-yl]amino]pyrazine-2-carbonitrile hydrochloride]	0.021		<300	<10	618	
COc1cc(CO[C@@H]2CCN(C(C)C)C2)ccc1-c1cc(Nc2cnc(C#N)cn2)n[nH]1 [Example 141, 5-[[5-[4-[[(3R)-1-isopropylpyrrolidin-3-yl]oxymethyl]-2-methoxy-phenyl]-1H-pyrazol-3-yl]amino]pyrazine-2-carbonitrile]	0.019	970	<300	<10		
COc1cc(N2CCN(CC(C)C)CC2)ccc1-c1cc(Nc2cnc(C#N)cn2)n[nH]1 [Example 142, 5-[[5-[4-(4-isobutylpiperazin-1-yl)-2-methoxy-phenyl]-1H-pyrazol-3-yl]amino]pyrazine-2-carbonitrile]	0.082	306	100	3		
CCN1CCC(Cc2ccc(-c3cc(Nc4cnc(C#N)cn4)n[nH]3)c(OC)c2)CC1 [Example 143, 5-[[5-[4-[(1-Ethyl-4-piperidyl)methyl]-2-methoxy-phenyl]-1H-pyrazol-3-yl]amino]pyrazine-2-carbonitrile hydrochloride]	0.021		<300	<10	820	
COc1cc(CC2CCN(C(C)C)CC2)ccc1-c1cc(Nc2cnc(C#N)cn2)n[nH]1 [Example 144, 5-[[5-[4-[(1-isopropyl-4-piperidyl)methyl]-2-methoxy-phenyl]-1H-pyrazol-3-yl]amino]pyrazine-2-carbonitrile]	0.026	829	<300	10		
CCN1CCC(CN(C)c2ccc(-c3cc(Nc4cnc(C#N)cn4)n[nH]3)c(OC)c2)CC1 [Example 145, 5-[[5-[4-[(1-ethyl-4-piperidyl)methyl-methyl-amino]-2-methoxy-phenyl]-1H-pyrazol-3-yl]amino]pyrazine-2-carbonitrile]	0.0084	267	<100	<3		
COc1cc(CNCC(C)C)ccc1-c1cc(Nc2cnc(C#N)cn2)n[nH]1 [Example 146, 5-[[5-[4-[(isobutylamino)methyl]-2-methoxy-phenyl]-1H-pyrazol-3-yl]amino]pyrazine-2-carbonitrile]	0.012	433	100	3		
COc1cc([C@@H]2CN(C(C)C)CCO2)ccc1-c1cc(Nc2cnc(C#N)cn2)n[nH]1 [Example 147, 5-[[5-[4-[(2R)-4-isopropylmorpholin-2-yl]-2-methoxy-phenyl]-1H-pyrazol-3-yl]amino]pyrazine-2-carbonitrile]	0.16	1200	300	10		
COc1cc(N(C)CC2CCN(C(C)C)CC2)ccc1-c1cc(Nc2cnc(C#N)cn2)n[nH]1 [Example 148, 5-[[5-[4-[(1-isopropyl-4-piperidyl)methyl-methyl-amino]-2-methoxy-phenyl]-1H-pyrazol-3-yl]amino]pyrazine-2-carbonitrile]	0.031	254	<100	<3		
N#Cc1cnc(Nc2cc(-c3ccc(N4CCNCC4)cc3OC(F)(F)F)[nH]n2)cn1 [Example 153]		1200	1000	100		3.8
